Laboratory results taken from patent US20230087766A1, “METHODS OF REACTIVATING LATENT HUMAN IMMUNODEFICIENCY VIRUS AND RELATED COMPOSITIONS” (priority 2017, published 2023).

Tests used:
Type in all cases: cell-based
[1] = tested on: latent HIV in U1 cells; test: Reactivation of latent HIV in U1 cells by RT-qPCR; details: Na-Cro at 40 mM
Procedure: Cell culture: J-Lat Al cells (derived from Jurkat cells harboring HIV LTR-Tat-GFP gene) and U1 cells (promonocytic cell line harboring one copy of HIV genome with defective tat gene) were obtained from NIH AIDS Reagent Program and cultured at 37° C. with 5% CO2 in RPM11640 medium containing 10% FBS and 1% penicillin-streptomycin as previously described (see G. Jiang, et al. PLoS Pathogens 11, e1005066 (2015)).
For inhibiting ACSS2 and crotonylation, cells were pretreated with ACSS2 inhibitor, AR12 (SELLECK CHEMICALS™, Houston, Tex.), for 30 minutes, followed by Na-Cro treatment for 4 or 18 hours.
Real-Time PCR Analysis: HIV gene expression was measured using real-time PCR in J-Lat Al cells treated with LRAs. Total nucleic acid was extracted using RNEASY™ Kit, genomic DNA digested using DNase I and total RNA reverse transcribed using Superscript III to synthesize cDNA. […] […] TAMRA-3′ (SEQ ID NO:3).

[2] = tested on: HIV LTR in J-Lat A1 cells; test: Chromatin immunoprecipitation (ChIP) at the HIV LTR; details: J-Lat A1 cells, 30 mM Na-Cro for 4 hours
From the text: FIG. 2 is a series of images and graphs showing that histone crotonylation by sodium crotonate addition re-programs histone tails at the HIV LTR. Panel A illustrates that Na-Cro addition increased global expression of H3K4Cro, H3K4Ac, and H3K18Ac while decreasing H3K27Me3. Panel B illustrates expression of transcription factors after Na-Cro addition in J-Lat Al cells. Panels C-E illustrate that Na-Cro addition re-programmed histone tails at the HIV LTR. Chromatin immunoprecipitation (ChIP) assay was performed by using anti-H3K4Cr, anti-H3K4Ac, and anti-H3K27Me3 antibodies after J-Lat Al cells were treated with 30 mM Na-Cro for 4 hours. PCR primers were specific for the HIV LTR region.
FIG. 7 is a series of graphs showing that induction of de-crotonylation of histone tail at HIV LTR is independent of SIRTs. Panel A illustrates that J-Lat Al cells were pre-treated with either 50 μM RSV or 1 mM NAM, followed by 30 mM Na-Cro addition to reactivate latent HIV expression. Untreated controls were compared with positive controls involving individual treatment of Na-Cro, RSV, or NAM. *, p<0.05; **, p<0.01 compared with control treatment. #, p<0.05 compared with Na-Cro treatment. Panel B illustrates that gene expression of sirt1 or sirt3 was measured by RT-qPCR in J-Lat Al cells treated with either 25 μM RSV, 50 μM RSV, or 1 mM NAM. *, p<0.05 and **, p<0.01 compared with control treatment. Panels C and D illustrate that histone crotonylation induces binding of SIRT3 and SIRT1 at the HIV LTR. J-Lat Al cells were treated with 30 mM Na-Cro for 4 hours and analyzed by ChIP assays using anti-SIRT1 or anti-SIRT3 antibodies. *, p<0.05 compared with control treatment.
Chromatin Immunoprecipitation (ChIP): J-Lat Al cells (2.5 to 5 million) were utilized in ChIP assays with anti-H3K18Ac, anti-H3K4Cr, anti-H3K27Me3, anti-H3K4Ac, anti-SIRT3 (CELL SIGNALING TECHNOLOGY®), and anti-SIRT1 (CELL SIGNALING TECHNOLOGY®) antibodies. ChIP assays were performed using […]® Kit from CELL SIGNALING TECHNOLOGY® as per the manufacturer's recommendations. Samples were cross-linked using formaldehyde and 150-1000 bp fragments were made using Micrococcal Nuclease digestion and 7 cycles of 30 seconds on/30 seconds off sonication. Antibodies were used to probe respective proteins. Purification of DNA was performed using the […]® Kit Protocol. Purified ChIP DNA was used in SYBR® Green qPCR using ChIP primers specific for HIV LTR.

[3] = tested on: latent HIV in resting CD4+ T cells from HIV-infected individuals under ART; test: Quantitative Viral Outgrowth Assay (QVOA), p24 ELISA; details: resting CD4+ T cells from 5 HIV-infected individuals under ART; ex vivo
Procedure: It was tested whether the histone crotonylation inducer, sodium crotonate, can reactivate latent HIV reservoirs from a patient under ART. Peripheral blood samples were obtained from 5 HIV-infected individuals with undetectable plasma viral loads and higher CD4+ T cell numbers (see Table 1). One million resting CD4+ T cells were treated with IL-2, PHA+IL-2, or IL-2+Na-Cro, and HIV p24 production was measured by QVOA using p24 ELISA as a measure of HIV reactivation.
Quantitative Viral Outgrowth Assay: Peripheral blood mononuclear cells (PBMC) were obtained from HIV-infected individuals on suppressive ART (n=5) by continuous-flow leukopheresis. Isolation of resting CD4+ T cells and quantification of replication competent virus was performed as previously described (see S. Dandekar, et al. Current HIV/AIDS reports 4, 10-15 (2007)). […] Cultures were scored as positive if p24 was detected at day 15 and was increased in concentration at day 19. […]

C/C=C/C(=O)[O-].[Na+] [Na-Cro, sodium crotonate]
increase in viral transcription compared to untreated controls [1]: 6 fold
acetylation at H3K4 at the HIV LTR [2]: increased
binding of SIRT1 at the HIV LTR [2]: efficiently bound to the HIV LTR at higher levels than controls
binding of SIRT3 at the HIV LTR [2]: efficiently bound to the HIV LTR at higher levels than controls
crotonylation at H3K4 at the HIV LTR [2]: increased
histone tri-methylation at H3K27 at the HIV LTR [2]: decreased
replication-competent HIV recovered (HIV reactivation, QVOA) [3]: four of the five participants
